Results on two compounds are retold here after PMC11571215, “Optimization of Antiproliferative Properties of Triimine Copper(II) Complexes” (Journal of Medicinal Chemistry, 2024).

Test [1] relates to BAX and BCL-2 proteins in HCT116-DoxR cells. In words: BAX and BCL-2 protein expression by Western Blot. It counts as cell-based, human. As to conditions: 48 h at IC50; normalized to 0.1% DMSO control and β-actin. Here is the method:
0.1% DMSO was used as a negative control and β-actin protein was used for the normalization of the total protein quantity.
HCT116-DoxR cells were seeded in a 25 cm^2 T-flask at a density of 2 × 10^6 cells/T-flask. […] Cells were incubated for 48 h and later were washed and collected using cold PBS 1× and a cell scraper. […]
After the storage period, the samples were submitted 5 ultrasound (Elma sonicator, D-78224 Singen/Htw, Germany) cycles on ice (2 min and 30 s on ultrasound followed by 1 min period on ice) and then centrifuged at 10,000 × g for 5 min. The supernatant was transferred to a 1.5 mL Eppendorf tube, and the total protein extracted was quantified with Pierce 660 nm Protein Assay kit (ThermoFisher Scientific, MA, USA).
In the SDS-PAGE analysis of BAX and BCL-2 proteins, 20 μg of protein was applied into a 10% polyacrylamide gel as well as NZYColour protein marker II and transferred to a 0.45 μm polyvinylidene fluoride (PVDF) membrane (GE Healthcare Life Sciences, Germany). […] Protein quantification was done by densitometry with ImageJ software.

Test [2] concerns the target T1, bovine serum albumin (BSA) (Bos taurus, UniProt P02769).
T1 construct: composed of single polypeptide chains with 583 amino
As to the kind of experiment: Interaction with bovine serum albumin (UV-vis, fluorescence). The class given is binding. The following applies: 24 h, 37 °C; for BSA UV-Visible absorbance change: BSA 20 µM, complexes 10, 25 and 50 µM; for BSA fluorescence quenching: BSA 20 μM, complexes 10-100 µM, excitation 278 nm. On the procedure:
All solutions used to perform the BSA interaction assays were diluted in filtered buffer (10 mM phosphate buffer and 150 mM NaCl) pH 7.0, with BSA at a fixed final concentration of 20 μM and the concentrations of the complexes varying from 10 to 100 μM. Control solutions were also prepared, namely, a solution containing only BSA, a solution consisting of BSA + DMSO, and a solution consisting of DMSO only. Solutions were analyzed after 24 h of incubation at 37 °C. UV–visible absorption spectra were acquired using the Evolution 300 UV–vis (Thermo Fisher Scientific, Waltham, MA, USA) in the wavelength range between 245 and 500 nm in quartz cuvettes. The fluorescence of the samples mentioned was analyzed using a Cary Eclipse fluorimeter (VARIAN, California, USA). The BSA molecule was excited at 278 nm (maximum absorption peak), and emission was recorded between 290 and 500 nm. The setup was set at a slow speed (120 nm/min) using 5 nm slits. The absorbance value of the buffer containing DMSO (at the respective percentages) was subtracted from that of each sample.
12. Interaction with Bovine Serum Albumin (BSA)
In the perspective of translating the complexes into clinical practice and considering their administration and distribution in the human body, it is essential to examine their potential interaction with albumin, a protein present in human plasma at high concentrations. In this regard, bovine serum albumin (BSA) was utilized as a model. BSA is the most abundant plasma protein in vertebrates, sharing approximately 76% similarity with human serum albumin (HSA) and composed of single polypeptide chains with 583 amino […]
UV-Visible spectroscopy is an effective method for predicting conformational changes in proteins when interacting with small molecules such as drugs. The interaction of BSA […]
spectroscopy, considering the intrinsic fluorescence of tryptophan residues in BSA. Figure […]
DMSO and BSA in the presence of increasing concentrations of the metallic complexes.
(1 picture or pasted object on this page, not shown here)

Structures are written as SMILES.

T1 sequence (P02769 25-607): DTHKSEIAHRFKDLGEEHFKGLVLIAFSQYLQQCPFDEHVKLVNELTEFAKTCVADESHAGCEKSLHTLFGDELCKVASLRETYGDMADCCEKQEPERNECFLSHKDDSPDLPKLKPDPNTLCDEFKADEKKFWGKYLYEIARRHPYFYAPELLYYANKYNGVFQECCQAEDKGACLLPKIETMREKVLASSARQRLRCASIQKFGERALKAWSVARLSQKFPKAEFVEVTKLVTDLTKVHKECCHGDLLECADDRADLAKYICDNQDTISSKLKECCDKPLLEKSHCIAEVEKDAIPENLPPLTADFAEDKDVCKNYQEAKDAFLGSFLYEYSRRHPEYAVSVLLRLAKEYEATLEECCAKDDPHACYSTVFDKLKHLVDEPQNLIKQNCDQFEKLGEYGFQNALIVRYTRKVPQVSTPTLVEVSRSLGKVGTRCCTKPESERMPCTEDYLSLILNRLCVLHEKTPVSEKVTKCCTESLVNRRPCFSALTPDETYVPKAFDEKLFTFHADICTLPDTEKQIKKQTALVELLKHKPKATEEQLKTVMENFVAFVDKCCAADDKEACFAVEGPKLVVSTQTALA

In the case of `[Cl][Cu-3]12([Cl])[n+]3ccccc3-c3cc(-c4cccc5ccccc45)cc([n+]31)-c1cccc[n+]12` [Cu1a], in test [1], the “BAX/BCL-2 ratio higher than control” value was determined as 1.80 ×. In test [2], the “BSA UV-Visible absorbance change” value is listed as “hypochromism” and the BSA fluorescence quenching result was “attenuation of BSA fluorescence was observed”.
Regarding `[Cl][Cu-3]12([Cl])[n+]3ccccc3-c3cc(-c4ccc5ccccc5c4)cc([n+]31)-c1cccc[n+]12` [Cu1b], the “BAX/BCL-2 ratio higher than control” value in test [1] is on record as 1.65 ×. For the same compound, in test [2], the “BSA UV-Visible absorbance change” value is given as “hypochromism” and the BSA fluorescence quenching result is “an increased quenching effect was observed”.
